In patent US8389555B2, “Medicaments” (Motac Neuroscience Limited, priority 2007, dated 2013):
Counter-ions that a name gives are not always drawn.

| Structure (SMILES) | melting point [°C] |
| --- | --- |
| CCN(CCCCNC(=O)c1ccc2ncsc2c1)C1CCc2ncsc2C1 (stereo not drawn) (as salt: salt) [Compound 14, Benzothiazole-6-carboxylic acid {4-[ethyl-(4,5,6,7-tetrahydro-benzothiazol-6-yl)-amino]-butyl}-amide] | 106.5 |
| CCCN(CCCCNC(=O)C1CCCCC1)C1CCc2ncsc2C1 (stereo not drawn) (as salt: salt) [Compound 20, Cyclohexanecarboxylic acid {4-[propyl-(4,5,6,7-tetrahydro-benzothiazol-6-yl)-amino]-butyl}-amide] | 130 |
| CCCN(CCCCNC(=O)N1CCCCC1)C1CCc2ncsc2C1 (stereo not drawn) (as salt: salt) [Compound 21, Piperidine-1-carboxylic acid {4-[propyl-(4,5,6,7-tetrahydro-benzothiazol-6-yl)-amino]-butyl}-amide] | 71 |
| CCCN(CCCCNC(=O)NC1CCCCC1)C1CCc2ncsc2C1 (stereo not drawn) (as salt: salt) [Compound 22, 1-Cyclohexyl-3-{4-[propyl-(4,5,6,7-tetrahydro-benzothiazol-6-yl)-amino]-butyl}-urea] | 149 |
| CCCN(CCCCNC(=O)C1CCc2ccccc2C1)C1CCc2ncsc2C1 (stereo not drawn) (as salt: salt) [Compound 23, 1,2,3,4-Tetrahydro-naphthalene-2-carboxylic acid {4-[propyl-(4,5,6,7-tetrahydro-benzothiazol-6-yl)-amino]-butyl}-amide] | 138 |
| CCCN(CCCCNC(=O)N1CCc2ccccc2C1)C1CCc2ncsc2C1 (stereo not drawn) (as salt: salt) [Compound 24, 3,4-Dihydro-1H-isoquinoline-2-carboxylic acid {4-[propyl-(4,5,6,7-tetrahydro-benzothiazol-6-yl)-amino]-butyl}-amide] | 125 |
| CCCN(CCCCNC(=O)N1CCc2cc(OC)c(OC)cc2C1)C1CCc2ncsc2C1 (stereo not drawn) (as salt: salt) [Compound 25, 6,7-Dimethoxy-3,4-dihydro-1H-isoquinoline-2-carboxylic acid {4-[propyl-(4,5,6,7-tetrahydro-benzothiazol-6-yl)-amino]-butyl}-amide] | 106 |
| CCCN(CCCCNC(=O)C1Cc2ccccc2C1)C1CCc2ncsc2C1 (stereo not drawn) (as salt: salt) [Compound 26, Indane-2-carboxylic acid-{4-[propyl-(4,5,6,7-tetrahydrobenzothiazol-6-yl)amino]butyl}amide] | 119 |
| CCCN(CCCCNC(=O)N1Cc2ccccc2C1)C1CCc2ncsc2C1 (stereo not drawn) (as salt: salt) [Compound 27, 1,3-Dihydro-isoindole-2-carboxylic acid {4-[propyl-(4,5,6,7-tetrahydro-benzothiazol-6-yl)-amino]-butyl}-amide] | 118 |
| CCN(CCN1CCN(c2ccccc2OC)CC1)C1CCc2ncsc2C1 (stereo not drawn) (as salt: salt) [Compound 28] | 108 |
| CCN(CCCN1CCN(c2ccccc2OC)CC1)C1CCc2ncsc2C1 (stereo not drawn) (as salt: salt) [Compound 29, Ethyl-{3-[4-(2-methoxy-phenyl)-piperazin-1-yl]-propyl}-(4,5,6,7-tetrahydro-benzothiazol-6-yl)-amine] | 64 |
| CCN(CCCCN1CCN(c2ccccc2OC)CC1)C1CCc2ncsc2C1 (stereo not drawn) (as salt: salt) [Compound 30, Ethyl-{4-[4-(2-methoxy-phenyl)-piperazin-1-yl]-butyl}-(4,5,6,7-tetrahydro-benzothiazol-6-yl)-amine] | 164 |
| CCN(CCN1CCc2ccccc2C1)C1CCc2ncsc2C1 (stereo not drawn) (as salt: salt) [Compound 31, [2-(3,4-Dihydro-1H-isoquinolin-2-yl)-ethyl]-ethyl-(4,5,6,7-tetrahydro-benzothiazol-6-yl)-amine] | 193 |
| CCN(CCNC(=O)c1ccc2ccccc2c1)C1CCc2ncsc2C1 (stereo not drawn) (as salt: salt) [Compound 32, Naphthalene-2-carboxylic acid {2-[ethyl-(4,5,6,7-tetrahydro-benzothiazol-6-yl)-amino]-ethyl}-amide] | 110 |

Continued, values first:

| melting point [°C] | Structure (SMILES) |
| --- | --- |
| 83 | CCN(CCN(CC)C1CCc2ncsc2C1)C1CCc2ncsc2C1 (stereo not drawn) (as salt: salt) [Compound 33, N,N′-Diethyl-N,N′-bis-(4,5,6,7-tetrahydro-benzothiazol-6-yl)-ethane-1,2-diamine] |
| 110 | CCCN(CCCN1CCN(c2cccc(Cl)c2Cl)CC1)C1CCc2ncsc2C1 (stereo not drawn) (as salt: salt) [Compound 36, {3-[4-(2,3-Dichloro-phenyl)-piperazin-1-yl]-propyl}-propyl-(4,5,6,7-tetrahydro-benzothiazol-6-yl)-amine] |
| 150 | CCCN(CCCCN1CCN(c2cccc(Cl)c2Cl)CC1)C1CCc2ncsc2C1 (stereo not drawn) (as salt: salt) [Compound 37, {4-[4-(2,3-Dichloro-phenyl)-piperazin-1-yl]-butyl}-propyl-(4,5,6,7-tetrahydro-benzothiazol-6-yl)-amine] |
| 186 | CCCN(CCN1CCN(C(=O)c2ccccc2)CC1)C1CCc2ncsc2C1 (stereo not drawn) (as salt: salt) [Compound 38, [2-(4-Benzoyl-piperazin-1-yl)-ethyl]-propyl-(4,5,6,7-tetrahydro-benzothiazol-6-yl)-amine] |
| 93 | CCCN(CCCCNC(=O)NC1Cc2ccccc2C1)C1CCc2ncsc2C1 (stereo not drawn) (as salt: salt) [Compound 60, 1-Indan-2-yl-3-{4-[propyl-(4,5,6,7-tetrahydrobenzothiazol-6-yl)amino]butyl}urea] |
| 120 | CCCN(CCCCNC(=O)N1CCN(c2ccccc2)CC1)C1CCc2ncsc2C1 (stereo not drawn) (as salt: salt) [Compound 61, 4-Phenylpiperazine-1-carboxylic acid {4-[propyl-(4,5,6,7-tetrahydrobenzothiazol-6-yl)amino]butyl}amide] |
| 115 | CCCN(CCCCNC(=O)N1CC=C(c2ccccc2)CC1)C1CCc2ncsc2C1 (stereo not drawn) (as salt: salt) [Compound 62, 4-Phenyl-3,6-dihydro-2H-pyridine-1-carboxylic acid {4-[propyl-(4,5,6,7-tetrahydrobenzothiazol-6-yl)amino]butyl}amide] |
| 56 | CCCN(CCCCNC(=O)N1CCC(c2ccccc2)CC1)C1CCc2ncsc2C1 (stereo not drawn) (as salt: salt) [Compound 64, 4-phenyl-N-(4-(propyl-(4,5,6,7-tetrahydrobenzo [d]thiazol-6-yl)amino)butyl)piperidine-1-carboxamide] |
| 114 | CCCN(CCCCNC(=O)C12CC3CC(CC(C3)C1)C2)C1CCc2ncsc2C1 (stereo not drawn) (as salt: salt) [Compound 65] |
| 75 | CCCN(CCCCC(=O)N1CCN(c2ccccc2)CC1)C1CCc2ncsc2C1 (stereo not drawn) (as salt: salt) [Compound 66, 1-(4-Phenylpiperazin-1-yl)-5-(propyl-(4,5,6,7-tetrahydrobenzothiazol-6-yl)amino)pentan-1-one] |
| 60 | CCCN(CCCCC(=O)NC1Cc2ccccc2C1)C1CCc2ncsc2C1 (stereo not drawn) (as salt: salt) [Compound 67, N-(2,3-dihydro-1H-inden-2-yl)-5-(propyl-(4,5,6,7-tetrahydrobenzothiazol-6-yl)amino)pentanamide] |
| 145 | CCCN(CCCCC(=O)NC12CC3CC(CC(C3)C1)C2)C1CCc2ncsc2C1 (stereo not drawn) (as salt: salt) [Compound 68, N-Adamantanyl-5-(propyl-(4,5,6,7-tetrahydrobenzothiazol-6-yl)amino)pentanamide] |
| 136 | CCCN(CCOc1ccccc1)C1CCc2ncsc2C1 (stereo not drawn) (as salt: salt) [Compound 69, N-(2-Phenoxyethyl)-N-propyl-4,5,6,7-tetrahydrobenzothiazol-6-amine] |
